Legend:
transketolase (TK) = target: T1, transketolase (TK) (Mus musculus, UniProt P40142); experiment: Transketolase activity in blood, tumors and tissues of treated mice (fluorescence NADH assay); assay type: in vivo
T1 construct: from tissue; host or cells: mouse blood, spleen, tumor, kidney, lung, liver (crude lysates)
T1 sequence (P40142 1-623): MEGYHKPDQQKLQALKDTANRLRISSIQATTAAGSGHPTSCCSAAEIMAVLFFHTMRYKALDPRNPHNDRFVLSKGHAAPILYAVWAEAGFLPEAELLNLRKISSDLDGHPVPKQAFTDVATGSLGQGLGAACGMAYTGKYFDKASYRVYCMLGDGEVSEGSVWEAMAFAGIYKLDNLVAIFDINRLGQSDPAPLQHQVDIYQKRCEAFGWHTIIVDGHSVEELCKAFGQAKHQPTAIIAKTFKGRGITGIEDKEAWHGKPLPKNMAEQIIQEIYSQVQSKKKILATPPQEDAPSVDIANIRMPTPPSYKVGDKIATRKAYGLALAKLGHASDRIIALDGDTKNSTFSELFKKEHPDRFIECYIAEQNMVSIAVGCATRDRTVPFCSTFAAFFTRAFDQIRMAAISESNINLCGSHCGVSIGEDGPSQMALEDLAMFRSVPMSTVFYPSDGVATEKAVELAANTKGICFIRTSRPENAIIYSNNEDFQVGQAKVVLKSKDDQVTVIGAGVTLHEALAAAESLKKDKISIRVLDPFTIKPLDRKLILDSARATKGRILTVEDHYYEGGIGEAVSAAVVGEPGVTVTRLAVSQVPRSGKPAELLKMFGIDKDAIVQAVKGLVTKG
Protocol: Blood samples from mice were taken (40 μl whole blood) serially or from mice sacrificed at the end of the experiment. Tissues, such as tumors (e.g. from implantation, xenograft, or arising spontaneously), brain, heart, kidney, liver, lung and spleen were taken and flash frozen in liquid nitrogen or on dry ice and stored in −80° C. until time of assay. Four volumes of cold lysis buffer (20 mM HEPES, pH 7.5, 1 mM EDTA, 0.2 g/l Triton X-100® and 0.2 g/L sodium deoxycholate, supplemented with 1 mM DTT and 1 mM PMSF just before use) were added to the blood, which was dissolved by vortexing. For blood that was frozen before coagulation, a clear lysate was obtained. If coagulation occurred, homogenization was used as described below for tissue. Tissues were suspended in lysis buffer in 10 ml round bottom tubes and homogenized with PowerGen 125® (Fisher Scientific) for four seconds at highest power while submerged in an ice-water bath. This step was repeated after a few seconds, as necessary. The lysate was used right away or else flash frozen and stored at −80° C. until assay time. Eighty microliters (80 μl) of lysate (containing 5 mg tissue/ml lysate for TK and kGDH, 0.5 mg/ml for G6PDH) were put directly in individual wells of a 96-well clear-bottomed assay plate. Twenty microliters (20 μl) of 5× reaction mix was added to initiate each enzymatic reaction.
Each reaction was monitored for the appearance of NADH (for transketolase, alpha-ketoglutarate dehydrogenase, pyruvate dehydrogenase) or NADPH (for glucose-6-phosphate dehydrogenase) at room temperature in a fluorescent plate reader with excitation at 340 nm and emission at 470 nm in kinetic mode. The velocity was determined by the slope of the initial linear range of increasing fluorescence, expressed in fluorescent units (FU)/min. The protein concentration in the lysate was determined using Bradford assays (BioRad) with BSA as a standard. The enzymatic velocity was normalized by the total protein concentration for inter-sample comparison. To obtain reliable results across samples, similar starting protein concentrations were prepared (within approximately 30%) so that the normalized velocity required only small adjustments. This was achieved by weighing the tissue and putting in lysis buffer so that the suspensions contained the same amount of tissue/ml lysis buffer for all samples.
For TK, 15 μl of 5× assay buffer containing final concentrations of 50 mM HEPES, 40 mM KCl, 2.5 mM MgCl2, 5 mM NaArsenate, 1 mM NAD, 2 unit/ml glyceraldehydes-3-phosphate dehydrogenase (GAPDH) was added to 80 μl of lysate. Reaction kinetics were monitored on a fluorescent plate reader to allow any possible background activity via GAPDH to burn out. Then 5 μl of substrate mix containing final concentrations of 0.5 mM ribose-5-phosphate and 0.5 mM xylulose-5-phosphate was added to initiate the reaction. The reaction kinetics were monitored using a fluorescent plate reader, and the slope of the initial linear range was recorded as the velocity of the reaction (FU/min). See FIG. 1 for the reaction scheme.
To investigate the amount of in vivo enzyme inhibition following treatment with an inhibitor, we administered a single dose of N3PT (100 mg/kg, intraperitoneally [i.p.]) and blood, spleen and brain samples were collected at various times from 0-120 hours after dosing. The enzymatic activities were determined as described in Example 1. TK activity was measured in blood and spleen. Because TK activity in the brain is below the detection limit of the assay, kGDH activity was measured in brain samples. Measurements were taken at various time intervals
We measured enzyme activity in an expanded panel of tissues from mice treated with N3PT or OxyT for 11 days i.p., twice per day. Samples were taken from tumors, blood, brain, heart, kidney, lung and spleen, and TK, kGDH and G6PDH activities were determined as described above.

[1] = target: T2, glucose-6-phosphate dehydrogenase (G6PDH) (Mus musculus, UniProt Q00612); experiment: Glucose-6-phosphate dehydrogenase activity in tissues of treated mice (fluorescence NADPH assay); assay type: in vivo; details: 11 days i.p. twice per day, various organs
T2 construct: from tissue; host or cells: mouse tumor, blood, brain, heart, kidney, liver, lung, spleen (crude lysates)
T2 sequence (Q00612 whole entry): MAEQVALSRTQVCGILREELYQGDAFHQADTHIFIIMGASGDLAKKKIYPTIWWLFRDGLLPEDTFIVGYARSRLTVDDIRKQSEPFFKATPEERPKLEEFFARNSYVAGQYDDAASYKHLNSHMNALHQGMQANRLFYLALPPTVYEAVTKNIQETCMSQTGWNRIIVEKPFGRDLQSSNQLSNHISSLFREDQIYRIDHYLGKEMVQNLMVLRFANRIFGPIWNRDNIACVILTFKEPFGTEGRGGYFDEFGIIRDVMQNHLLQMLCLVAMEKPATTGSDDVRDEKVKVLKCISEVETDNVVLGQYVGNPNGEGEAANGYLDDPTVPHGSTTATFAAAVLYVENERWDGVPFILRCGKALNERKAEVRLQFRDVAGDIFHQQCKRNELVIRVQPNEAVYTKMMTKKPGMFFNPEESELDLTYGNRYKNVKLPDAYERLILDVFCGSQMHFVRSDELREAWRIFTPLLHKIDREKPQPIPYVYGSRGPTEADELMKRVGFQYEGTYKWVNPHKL
Protocol: Blood samples from mice were taken (40 μl whole blood) serially or from mice sacrificed at the end of the experiment. Tissues, such as tumors (e.g. from implantation, xenograft, or arising spontaneously), brain, heart, kidney, liver, lung and spleen were taken and flash frozen in liquid nitrogen or on dry ice and stored in −80° C. until time of assay. Four volumes of cold lysis buffer (20 mM HEPES, pH 7.5, 1 mM EDTA, 0.2 g/l Triton X-100® and 0.2 g/L sodium deoxycholate, supplemented with 1 mM DTT and 1 mM PMSF just before use) were added to the blood, which was dissolved by vortexing. For blood that was frozen before coagulation, a clear lysate was obtained. […]
Each reaction was monitored for the appearance of NADH (for transketolase, alpha-ketoglutarate dehydrogenase, pyruvate dehydrogenase) or NADPH (for glucose-6-phosphate dehydrogenase) at room temperature in a fluorescent plate reader with excitation at 340 nm and emission at 470 nm in kinetic mode. The velocity was determined by the slope of the initial linear range of increasing fluorescence, expressed in fluorescent units (FU)/min. The protein concentration in the lysate was determined using Bradford assays (BioRad) with BSA as a standard. […]
We measured enzyme activity in an expanded panel of tissues from mice treated with N3PT or OxyT for 11 days i.p., twice per day. […]

Cc1ccc(C[n+]2csc(CCO)c2C)c(N)n1 [N3PT, 3-[(2-amino-6-methyl-3-pyridinyl)methyl]-5-(2-hydroxyethyl)-4-methyl thiazolium]
percent inhibition of TK activity in tumors (transketolase (TK); 11 days i.p. twice per day, 100 mg/kg, compared to vehicle control): 70% | liver enzymatic (TK) activity (transketolase (TK); 11 days i.p. twice per day, liver): hardly affected | Inhibition of transketolase activity in the spleen (transketolase (TK); single dose 100 mg/kg i.p., 8-24 hours post-treatment): up to 35% | Transketolase inhibition at 1 hour post-treatment (transketolase (TK); single dose 100 mg/kg i.p., 1 hour post-treatment): detectable | Transketolase inhibition at the final sampling at 120 hours (transketolase (TK); single dose 100 mg/kg i.p., 120 hours (5 days)): still evident | inhibition of transketolase activity in the blood (transketolase (TK); single dose N3PT 100 mg/kg i.p., at the nadir (12 hours)): 80% | G6PDH enzymatic activity following treatment [1]: no significant decrease

Source: patent US20070292888A1, “Methods for Measuring Enzyme Activities in Cells, Blood, Tumors and Tissues” (GEN-PATH PHARMACEUTICALS, INC., priority 2004, published 2007)
